Reference: ChEMBL document CHEMBL5260842 (J Med Chem, 2019)
The source made the active and inactive calls. The rule behind the calls is not given here.

Key:
[1] = molecular target: T1, von Hippel-Lindau disease tumor suppressor/Androgen receptor (Homo sapiens, UniProt P10275+P40337); assay: Protac activity at VHL/AR in AR-positive human LNCaP cells assessed as induction of androgen receptor degradation at 0.01 uM incubated for 6 hrs by Western blot analysis (reference value: 0%); type: cell-based
Target sequence in this assay (P10275 whole entry, looked up): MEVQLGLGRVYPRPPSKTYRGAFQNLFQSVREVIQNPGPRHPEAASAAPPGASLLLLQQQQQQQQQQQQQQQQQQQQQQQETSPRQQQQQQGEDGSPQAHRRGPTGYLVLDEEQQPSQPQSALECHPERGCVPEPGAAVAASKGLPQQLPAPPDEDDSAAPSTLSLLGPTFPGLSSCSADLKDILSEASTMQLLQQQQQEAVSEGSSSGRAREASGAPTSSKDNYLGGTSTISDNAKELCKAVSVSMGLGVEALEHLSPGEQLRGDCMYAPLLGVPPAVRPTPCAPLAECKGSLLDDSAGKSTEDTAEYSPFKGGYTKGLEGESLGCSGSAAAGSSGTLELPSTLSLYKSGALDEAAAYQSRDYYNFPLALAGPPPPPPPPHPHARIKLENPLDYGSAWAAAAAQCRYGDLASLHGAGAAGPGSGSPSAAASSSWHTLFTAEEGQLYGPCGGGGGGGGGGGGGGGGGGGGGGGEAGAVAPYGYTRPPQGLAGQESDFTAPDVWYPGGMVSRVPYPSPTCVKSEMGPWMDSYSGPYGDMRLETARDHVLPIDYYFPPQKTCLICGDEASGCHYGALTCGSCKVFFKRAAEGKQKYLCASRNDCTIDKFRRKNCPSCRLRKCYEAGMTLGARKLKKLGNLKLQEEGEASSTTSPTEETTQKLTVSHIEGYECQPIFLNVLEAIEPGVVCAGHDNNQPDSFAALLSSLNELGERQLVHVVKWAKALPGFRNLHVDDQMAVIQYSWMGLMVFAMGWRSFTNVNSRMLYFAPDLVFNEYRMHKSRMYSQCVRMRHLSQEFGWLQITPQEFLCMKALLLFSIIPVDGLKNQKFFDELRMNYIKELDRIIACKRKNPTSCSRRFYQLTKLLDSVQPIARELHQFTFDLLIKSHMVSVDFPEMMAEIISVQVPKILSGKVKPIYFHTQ
Target sequence in this assay (P40337 whole entry, looked up): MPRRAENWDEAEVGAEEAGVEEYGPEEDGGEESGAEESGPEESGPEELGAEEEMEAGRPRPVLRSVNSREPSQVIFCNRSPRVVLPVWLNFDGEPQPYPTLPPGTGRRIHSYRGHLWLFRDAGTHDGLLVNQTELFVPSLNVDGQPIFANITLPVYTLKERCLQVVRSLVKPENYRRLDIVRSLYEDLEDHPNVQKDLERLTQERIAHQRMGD

[2] = molecular target: T1, von Hippel-Lindau disease tumor suppressor/Androgen receptor; assay: Protac activity at VHL/AR in AR-positive human LNCaP cells assessed as induction of androgen receptor degradation at 0.1 uM incubated for 6 hrs by Western blot analysis (reference value: 0%); type: cell-based
Target sequence in this assay (P10275 whole entry, looked up): as the sequence (P10275 whole entry, looked up) above
Target sequence in this assay (P40337 whole entry, looked up): as the sequence (P40337 whole entry, looked up) above

[3] = molecular target: T1, von Hippel-Lindau disease tumor suppressor/Androgen receptor; assay: Protac activity at VHL/AR in AR-positive human LNCaP cells assessed as reduction in protein level at 100 nM measured after 2 to 4 hrs by Western blot analysis; type: cell-based; details: time 2-4 hrs
Target sequence in this assay (P10275 whole entry, looked up): as the sequence (P10275 whole entry, looked up) above
Target sequence in this assay (P40337 whole entry, looked up): as the sequence (P40337 whole entry, looked up) above

[4] = molecular target: T1, von Hippel-Lindau disease tumor suppressor/Androgen receptor; assay: Protac activity at VHL/AR in AR-positive human VCaP cells assessed as reduction in protein level at 100 nM measured after 2 to 4 hrs by Western blot analysis; type: cell-based; details: time 2-4 hrs
Target sequence in this assay (P10275 whole entry, looked up): as the sequence (P10275 whole entry, looked up) above
Target sequence in this assay (P40337 whole entry, looked up): as the sequence (P40337 whole entry, looked up) above

[5] = molecular target: T1, von Hippel-Lindau disease tumor suppressor/Androgen receptor; assay: Protac activity at VHL/AR in human LNCaP cells assessed as induction of protein degradation measured after 24 hrs by Western blot analysis; type: cell-based
Target sequence in this assay (P10275 whole entry): as the sequence (P10275 whole entry, looked up) above
Target sequence in this assay (P40337 whole entry): as the sequence (P40337 whole entry, looked up) above

[6] = molecular target: T1, von Hippel-Lindau disease tumor suppressor/Androgen receptor; assay: Protac activity at VHL/AR in human VCaP cells assessed as induction of protein degradation measured after 24 hrs by Western blot analysis; type: cell-based
Target sequence in this assay (P10275 whole entry): as the sequence (P10275 whole entry, looked up) above
Target sequence in this assay (P40337 whole entry): as the sequence (P40337 whole entry, looked up) above

[7] = molecular target: T1, von Hippel-Lindau disease tumor suppressor/Androgen receptor; assay: Protac activity at VHL/AR in human 22Rv1 cells assessed as induction of protein degradation measured after 24 hrs by Western blot analysis; type: cell-based
Target sequence in this assay (P10275 whole entry): as the sequence (P10275 whole entry, looked up) above
Target sequence in this assay (P40337 whole entry): as the sequence (P40337 whole entry, looked up) above

[8] = molecular target: T1, von Hippel-Lindau disease tumor suppressor/Androgen receptor; assay: Protac activity at VHL/AR in human VCaP cells assessed as induction of protein degradation at 10 nM measured after 24 hrs by Western blot analysis relative to control; type: cell-based
Target sequence in this assay (P10275 whole entry, looked up): as the sequence (P10275 whole entry, looked up) above
Target sequence in this assay (P40337 whole entry, looked up): as the sequence (P40337 whole entry, looked up) above

[9] = tested on: LNCaP; assay: Downregulation of PSA mRNA expression in human LNCaP cells measured after 24 hrs by qRT-PCR analysis; type: functional, cell-based; details: dose 0.1-10000 nM
[10] = tested on: LNCaP; assay: Downregulation of TMPRSS2 mRNA expression in human LNCaP cells measured after 24 hrs by qRT-PCR analysis; type: functional, cell-based; details: dose 0.1-10000 nM
[11] = tested on: LNCaP; assay: Downregulation of FKBP5 mRNA expression in human LNCaP cells measured after 24 hrs by qRT-PCR analysis; type: functional, cell-based; details: dose 0.1-10000 nM
[12] = tested on: VCaP; assay: Downregulation of PSA mRNA expression in human VCaP cells measured after 24 hrs by regular serum based qRT-PCR analysis; type: functional, cell-based; details: dose 1-1000 nM
[13] = tested on: VCaP; assay: Downregulation of TMPRSS2 mRNA expression in human VCaP cells measured after 24 hrs by regular serum based qRT-PCR analysis; type: functional, cell-based; details: dose 1-1000 nM
[14] = tested on: VCaP; assay: Downregulation of FKBP5 mRNA expression in human VCaP cells measured after 24 hrs by regular serum based qRT-PCR analysis; type: functional, cell-based; details: dose 1-1000 nM
[15] = tested on: VCaP; assay: Downregulation of PSA mRNA expression in human VCaP cells measured after 24 hrs by charcoal stripped serum based qRT-PCR analysis; type: functional, cell-based; details: dose 1-1000 nM
[16] = tested on: VCaP; assay: Downregulation of TMPRSS2 mRNA expression in human VCaP cells measured after 24 hrs by charcoal stripped serum based qRT-PCR analysis; type: functional, cell-based; details: dose 1-1000 nM
[17] = tested on: VCaP; assay: Downregulation of FKBP5 mRNA expression in human VCaP cells measured after 24 hrs by charcoal stripped serum based qRT-PCR analysis; type: functional, cell-based; details: dose 1-1000 nM
[18] = Downregulation of PSA mRNA expression in human LNCaP cells at 10 nM measured after 24 hrs by qRT-PCR analysis relative to control; type: functional
[19] = Downregulation of TMPRSS2 mRNA expression in human LNCaP cells at 10 nM measured after 24 hrs by qRT-PCR analysis relative to control; type: functional
[20] = Downregulation of PSA mRNA expression in human VCaP cells at 10 nM measured after 24 hrs by regular serum based qRT-PCR analysis relative to control; type: functional
[21] = Downregulation of TMPRSS2 mRNA expression in human VCaP cells at 10 nM measured after 24 hrs by regular serum based qRT-PCR analysis relative to control; type: functional
[22] = Downregulation of PSA mRNA expression in human VCaP cells at 10 nM measured after 24 hrs by charcoal stripped serum based qRT-PCR analysis relative to control; type: functional
[23] = Downregulation of TMPRSS2 mRNA expression in human VCaP cells at 10 nM measured after 24 hrs by charcoal stripped serum based qRT-PCR analysis relative to control; type: functional
[24] = tested on: VCaP; assay: Downregulation of ERG gene expression in human VCaP cells measured after 24 hrs by charcoal stripped serum based qRT-PCR analysis; type: functional, cell-based; details: dose 1-1000 nM
[25] = tested on: VCaP; assay: Downregulation of ERG gene expression in human VCaP cells measured after 24 hrs by regular serum based qRT-PCR analysis; type: functional, cell-based; details: dose 1-1000 nM
[26] = tested on: LNCaP; assay: Cytotoxicity against AR-positive human LNCaP cells assessed as inhibition of cell growth incubated for 7 days in presence of AR agonist, R1881 in charcoal stripped medium by WST-8 assay; type: functional, cell-based; details: 168 h
[27] = tested on: VCaP; assay: Cytotoxicity against AR-positive human VCaP cells assessed as inhibition of cell growth incubated for 7 days in presence of AR agonist, R1881 in charcoal stripped medium by WST-8 assay; type: functional, cell-based; details: 168 h
[28] = tested on: CWR22R; assay: Cytotoxicity against AR-positive human 22Rv1 cells assessed as inhibition of cell growth incubated for 7 days in regular culture medium by WST-8 assay; type: functional, cell-based; details: 22Rv1, 168 h
[29] = tested on: LNCaP; assay: Potency index, ratio of enzalutamide IC50 to test compound IC50 for cytotoxicity against AR-positive human LNCaP cells assessed as inhibition of cell growth incubated for 7 days in presence of AR agonist, R1881 in charcoal stripped medium by WST-8 assay; type: functional; details: time 7 day
[30] = tested on: VCaP; assay: Potency index, ratio of enzalutamide IC50 to test compound IC50 for cytotoxicity against AR-positive human VCaP cells assessed as inhibition of cell growth incubated for 7 days in presence of AR agonist, R1881 in charcoal stripped medium by WST-8 assay; type: functional; details: time 7 day
[31] = tested on: CWR22R; assay: Potency index, ratio of enzalutamide IC50 to test compound IC50 for cytotoxicity against AR-positive human 22Rv1 cells assessed as inhibition of cell growth incubated for 7 days in regular culture medium by WST-8 assay; type: functional; details: time 7 day
[32] = molecular target: T1, von Hippel-Lindau disease tumor suppressor/Androgen receptor; assay: (§1) Protac activity at VHL/AR in AR-positive human LNCaP cells assessed as induction of androgen receptor degradation at 100 nM preincubated with N-((1r,3r)-3-(3-chloro-4-cyanophenoxy)-2,2,4,4-tetramethylcyclobutyl)-1-(2-hydroxyethyl)-1H-pyrazole-4-carboxamide for 2 hrs followed by compound addition and measured after 6 hrs by Western blot analysis; type: cell-based
Target sequence in this assay (P10275 whole entry, looked up): as the sequence (P10275 whole entry, looked up) above
Target sequence in this assay (P40337 whole entry, looked up): as the sequence (P40337 whole entry, looked up) above

[33] = molecular target: T1, von Hippel-Lindau disease tumor suppressor/Androgen receptor; assay: (§2) Protac activity at VHL/AR in AR-positive human LNCaP cells assessed as induction of androgen receptor degradation at 100 nM preincubated with VHL ligand, (2S,4R)-4-hydroxy-1-((R)-3-methyl-2-(3-methylisoxazol-5-yl)butanoyl)-N-((S)-3-(methylamino)-1-(4-(4-methylthiazol-5-yl)phenyl)-3-oxopropyl)pyrrolidine-2-carboxamide for 2 hrs followed by compound addition and measured after 6 hrs by Western blot analysis; type: cell-based
[34] = molecular target: T1, von Hippel-Lindau disease tumor suppressor/Androgen receptor; assay: Protac activity at VHL/AR in AR-positive human LNCaP cells assessed as induction of androgen receptor degradation at 100 nM preincubated with NEDD8 activating E1 enzyme inhibitor, MLN4924 for 2 hrs followed by compound addition and measured after 6 hrs by Western blot analysis; type: cell-based
[35] = molecular target: T1, von Hippel-Lindau disease tumor suppressor/Androgen receptor; assay: Protac activity at VHL/AR in AR-positive human LNCaP cells assessed as induction of androgen receptor degradation at 100 nM preincubated with proteasome inhibitor, MG132 for 2 hrs followed by compound addition and measured after 6 hrs by Western blot analysis; type: cell-based
[36] = molecular target: T1, von Hippel-Lindau disease tumor suppressor/Androgen receptor; assay: as §1, with “VCaP” for “LNCaP”; type: cell-based
[37] = molecular target: T1, von Hippel-Lindau disease tumor suppressor/Androgen receptor; assay: as §2, with “VCaP” for “LNCaP”; type: cell-based
[38] = molecular target: T1, von Hippel-Lindau disease tumor suppressor/Androgen receptor; assay: Protac activity at VHL/AR in AR-positive human VCaP cells assessed as induction of androgen receptor degradation at 100 nM preincubated with NEDD8 activating E1 enzyme inhibitor, MLN4924 for 2 hrs followed by compound addition and measured after 6 hrs by Western blot analysis; type: cell-based
[39] = molecular target: T1, von Hippel-Lindau disease tumor suppressor/Androgen receptor; assay: Protac activity at VHL/AR in AR-positive human VCaP cells assessed as induction of androgen receptor degradation at 100 nM preincubated with proteasome inhibitor, MG132 for 2 hrs followed by compound addition and measured after 6 hrs by Western blot analysis; type: cell-based
[40] = molecular target: T1, von Hippel-Lindau disease tumor suppressor/Androgen receptor; assay: In vivo protac activity at VHL/AR in human VCaP cells xenografted SCID mouse assessed as reduction in PSA protein level in tumor at 50 mg/kg, ip administered as single dose measured after 3 to 48 hrs Western blot analysis; type: functional, organism-based; details: time 3-48 hrs
[41] = tested on: von Hippel-Lindau disease tumor suppressor/Androgen receptor (Homo sapiens); assay: In vivo protac activity at VHL/AR in human VCaP cells xenografted SCID mouse assessed as reduction in AR protein level in tumor at 50 mg/kg, ip administered as single dose measured after 3 to 48 hrs Western blot analysis; details: time 3-48 hrs

Activity [1]: 89%
Activity [2]: 99%
Activity [3]: Active
Activity [4]: Active
EC50 [5]: 0.86 nM
EC50 [6]: 0.76 nM
EC50 [7]: 10.4 nM
Activity [8]: > 95%
Activity [32]: inactive
Activity [33]: inactive
Activity [34]: inactive
Activity [35]: inactive
Activity [36]: inactive
Activity [37]: inactive
Activity [38]: inactive
Activity [39]: inactive
Activity [40]: Active
Activity [41]: Active
SMILES: Cc1ncsc1-c1ccc([C@H](CC(=O)N2CCC(N3CCC(C#Cc4ccc(C(=O)N[C@H]5C(C)(C)[C@H](Oc6ccc(C#N)c(Cl)c6)C5(C)C)cc4)CC3)CC2)NC(=O)[C@@H]2C[C@@H](O)CN2C(=O)[C@@H](NC(=O)C2(F)CC2)C(C)(C)C)cc1
Activity [9]: Dose-Dependent Effect
Activity [10]: Dose-Dependent Effect
Activity [11]: Dose-Dependent Effect
Activity [12]: Dose-Dependent Effect
Activity [13]: Dose-Dependent Effect
Activity [14]: Dose-Dependent Effect
Activity [15]: Dose-Dependent Effect
Activity [16]: Dose-Dependent Effect
Activity [17]: Dose-Dependent Effect
Activity [18]: >50%
Activity [19]: >50%
Activity [20]: >50%
Activity [21]: >50%
Activity [22]: >50%
Activity [23]: >50%
Activity [24]: Dose-Dependent Effect
Activity [25]: Dose-Dependent Effect
IC50 [26]: 0.25 nM
IC50 [27]: 0.34 nM
IC50 [28]: 183 nM
Ratio IC50 [29]: >100
Ratio IC50 [30]: >100
Ratio IC50 [31]: >100
